Data from ChEMBL document CHEMBL4715778, “Sobetirome prodrug esters with enhanced blood-brain barrier permeability” (Bioorg Med Chem, 2016).

How the values were obtained:
Format in all cases: ADME, organism-based
[1] = Prodrug conversion in C57Bl/6 mouse brain assessed as increase in sobetirome level at 1.5 micromol/kg, ip after 30 mins by LC-MS/MS analysis relative to sobetirome control; settings: in vivo, 0.5 h, dose 1.5 µmol/kg
[2] = AUC (0 to t) in C57Bl/6 mouse brain assessed as sobetirome level at 1.5 microM/Kg, ip upto 8 hrs by LC-MS/MS analysis; set-up: route intraperitoneal, dose 1.5 µM/Kg, time <=8; settings: in vivo
[3] = Ratio of AUC (0 to t) in brain to liver in C57Bl/6 mouse assessed as sobetirome level at 1.5 microM/Kg, ip upto 8 hrs by LC-MS/MS analysis; settings: in vivo
[4] = Ratio of AUC in brain to liver in C57Bl/6 mouse assessed as sobetirome level at 1.5 microM/Kg, ip upto 8 hrs by LC-MS/MS analysis; settings: in vivo
[5] = AUC (0 to t) in C57Bl/6 mouse serum assessed as sobetirome level at 1.5 microM/Kg, ip upto 8 hrs by LC-MS/MS analysis; set-up: route intraperitoneal, dose 1.5 µM/Kg, time <=8; settings: in vivo
[6] = Ratio of AUC (0 to t) in brain to serum in C57Bl/6 mouse assessed as sobetirome level at 1.5 microM/Kg, ip upto 8 hrs by LC-MS/MS analysis
[7] = AUC (0 to t) in C57Bl/6 mouse liver assessed as sobetirome level at 1.5 microM/Kg, ip upto 8 hrs by LC-MS/MS analysis; set-up: route intraperitoneal, dose 1.5 µM/Kg, time <=8; settings: in vivo
[8] = Ratio of AUC in brain to serum in C57Bl/6 mouse assessed as sobetirome level at 1.5 microM/Kg, ip upto 8 hrs by LC-MS/MS analysis
[9] = Ratio of AUC in C57Bl/6 mouse brain to serum at 1.5 microM/Kg, ip upto 8 hrs by LC-MS/MS analysis; settings: read-out: Ratio AUC
[10] = AUC (0 to t) in C57Bl/6 mouse serum at 1.5 microM/Kg, ip upto 8 hrs by LC-MS/MS analysis; set-up: route intraperitoneal, dose 1.5 µM/Kg, time <=8; settings: in vivo
[11] = AUC (0 to t) in C57Bl/6 mouse liver at 1.5 microM/Kg, ip upto 8 hrs by LC-MS/MS analysis; set-up: route intraperitoneal, dose 1.5 µM/Kg, time <=8; settings: in vivo
[12] = Half life in iv dosed mouse; settings: in vivo
[13] = AUC (0 to t) in C57Bl/6 mouse brain at 1.5 microM/Kg, ip upto 8 hrs by LC-MS/MS analysis; set-up: route intraperitoneal, dose 1.5 µM/Kg, time <=8; settings: in vivo
[14] = Ratio of AUC in C57Bl/6 mouse brain to liver at 1.5 microM/Kg, ip upto 8 hrs by LC-MS/MS analysis; settings: in vivo

| SMILES | Drug metabolism [1] | also measured |
| --- | --- | --- |
| Cc1cc(OCC(=O)OCCN2CCOCC2)cc(C)c1Cc1ccc(O)c(C(C)C)c1 | Metabolite_Notdetected |  |
| Cc1cc(OCC(=O)OCCN)cc(C)c1Cc1ccc(O)c(C(C)C)c1.Cl |  | AUC [2]: 17.1 ng·h/g; fold change (FC) [1]: 2; Ratio AUC [3]: 0.009; fold change (FC) [4]: 4; AUC [5]: 367.8 ng·h/g; Ratio AUC [6]: 0.05; AUC [7]: 1897 ng·h/g; fold change (FC) [8]: 7 |
| Cc1cc(OCC(=O)OC2CCNCC2)cc(C)c1Cc1ccc(O)c(C(C)C)c1 | Metabolite_Notdetected |  |
| Cc1cc(OCC(=O)OC2CCCNC2)cc(C)c1Cc1ccc(O)c(C(C)C)c1 (stereo not given) | Metabolite_Notdetected |  |
| Cc1cc(OCC(=O)Oc2ccc(C[C@H](N)C(=O)O)cc2)cc(C)c1Cc1ccc(O)c(C(C)C)c1.Cl | Metabolite_Notdetected |  |
| Cc1cc(OCC(=O)OC[C@H]2O[C@@H](O)[C@H](O)[C@@H](O)[C@@H]2O)cc(C)c1Cc1ccc(O)c(C(C)C)c1 | Metabolite_Notdetected |  |
| CCOC(=O)COc1cc(C)c(Cc2ccc(O)c(C(C)C)c2)c(C)c1 | Metabolite_Notdetected |  |
| Cc1cc(OCC(=O)OCCNC(=O)[C@@H](N)C(C)C)cc(C)c1Cc1ccc(O)c(C(C)C)c1.Cl | Metabolite_Notdetected |  |
| Cc1cc(OCC(=O)OC2CN(C)C2)cc(C)c1Cc1ccc(O)c(C(C)C)c1 | Metabolite_Notdetected |  |
| Cc1cc(OCC(=O)O)cc(C)c1Cc1ccc(O)c(C(C)C)c1 [SOBETIROME] | Metabolite_Notdetected | Kp at 8 h [9]: 0.02; AUC [10]: 681.7 ng·h/g; AUC [11]: 2933 ng·h/g; half-life [12]: 1.3 h; AUC [13]: 10.8 ng·h/g; Ratio AUC [14]: 0.004 |

Now from value to molecule, other results behind:

| Drug metabolism [1] | SMILES | also measured |
| --- | --- | --- |
| Metabolite_Notdetected | Cc1cc(OCC(=O)OCCN(C)C)cc(C)c1Cc1ccc(O)c(C(C)C)c1 |  |
| Metabolite_Notdetected | Cc1cc(OCC(=O)OC[C@H]2CCCN2)cc(C)c1Cc1ccc(O)c(C(C)C)c1 |  |
| Metabolite_Notdetected | Cc1cc(OCC(=O)OC2CNC2)cc(C)c1Cc1ccc(O)c(C(C)C)c1 |  |
| Metabolite_Notdetected | Cc1cc(OCC(=O)OCCNC(=O)[C@@H](N)CCCCN)cc(C)c1Cc1ccc(O)c(C(C)C)c1.Cl.Cl |  |
| Metabolite_Notdetected | Cc1cc(OCC(=O)OCC2CCCCN2)cc(C)c1Cc1ccc(O)c(C(C)C)c1 (stereo not given) |  |
| Metabolite_Notdetected | Cc1cc(OCC(=O)OCC[N+](C)(C)C)cc(C)c1Cc1ccc(O)c(C(C)C)c1.[Br-] |  |
| Metabolite_Notdetected | Cc1cc(OCC(=O)OC2(C)CNC2)cc(C)c1Cc1ccc(O)c(C(C)C)c1 |  |
